Source: the NIST ThermoML archive (doi:10.1021/je8003832)
Numbers after ± are expanded uncertainties.

Assay: xn = mol fraction of the nth substance listed
Details: 101 kPa, Liquid

CCCCn1cc[n+](C)c1.O=S(=O)([O-])C(F)(F)F [1-butyl-3-methylimidazolium trifluoromethanesulfonate] + O
Details	mass density [kg/m3]	viscosity [mPa·s]
303.15 K, x2 = 0	1298.4 ± 4	63.19 ± 4.1
303.15 K, x2 = 0.1032	1294.5 ± 3.9	45.7 ± 3
303.15 K, x2 = 0.1939	1291.2 ± 3.9	35.41 ± 2.3
303.15 K, x2 = 0.2987	1286.5 ± 3.8	28.97 ± 1.9
303.15 K, x2 = 0.3999	1280.8 ± 3.7	23.25 ± 1.6
303.15 K, x2 = 0.501	1272.8 ± 3.6	19.19 ± 1.3
303.15 K, x2 = 0.5923	1263 ± 3.6	15.47 ± 1.1
303.15 K, x2 = 0.7023	1246.2 ± 3.5	11.56 ± 0.84
303.15 K, x2 = 0.799	1220.1 ± 3.4	8.206 ± 0.63
303.15 K, x2 = 0.901	1164.6 ± 3.3	4.552 ± 0.4
308.15 K, x2 = 0	1294.9 ± 4.1	51.73 ± 0.56
308.15 K, x2 = 0.1032	1291 ± 4	37.23 ± 2.4
308.15 K, x2 = 0.1939	1287.7 ± 4	29.27 ± 1.9
308.15 K, x2 = 0.2987	1283 ± 3.9	24.28 ± 1.6
308.15 K, x2 = 0.3999	1277.3 ± 3.8	19.95 ± 1.4
308.15 K, x2 = 0.501	1269.3 ± 3.7	16.8 ± 1.2
308.15 K, x2 = 0.5923	1259.5 ± 3.7	13.2 ± 0.94
308.15 K, x2 = 0.7023	1242.5 ± 3.6	10.13 ± 0.75
308.15 K, x2 = 0.799	1216.6 ± 3.5	6.932 ± 0.55
308.15 K, x2 = 0.901	1160.6 ± 3.3	3.869 ± 0.34
313.15 K, x2 = 0	1291.4 ± 4.2	42.46 ± 2.8
313.15 K, x2 = 0.1032	1287.5 ± 4.2	30.93 ± 2
313.15 K, x2 = 0.1939	1284.1 ± 4.1	24.46 ± 1.6
313.15 K, x2 = 0.2987	1279.4 ± 4	20.53 ± 1.4
313.15 K, x2 = 0.3999	1273.8 ± 3.9	16.88 ± 1.2
313.15 K, x2 = 0.501	1265.7 ± 3.9	13.95 ± 0.99
313.15 K, x2 = 0.5923	1255.9 ± 3.8	11.21 ± 0.82
313.15 K, x2 = 0.7023	1238.8 ± 3.7	8.605 ± 0.66
313.15 K, x2 = 0.799	1212.9 ± 3.6	5.989 ± 0.5
313.15 K, x2 = 0.901	1156.7 ± 3.4	3.376 ± 0.3
318.15 K, x2 = 0	1287.8 ± 4.3	35.17 ± 2.3
318.15 K, x2 = 0.1032	1283.8 ± 4.3	25.04 ± 1.7
318.15 K, x2 = 0.1939	1280.4 ± 4.2	20.79 ± 1.4
318.15 K, x2 = 0.2987	1275.8 ± 4.1	17.55 ± 1.2
318.15 K, x2 = 0.3999	1270.2 ± 4	14.38 ± 1
318.15 K, x2 = 0.501	1262 ± 4	12 ± 0.87
318.15 K, x2 = 0.5923	1252.2 ± 3.9	9.907 ± 0.74
318.15 K, x2 = 0.7023	1234.9 ± 3.8	7.465 ± 0.59
318.15 K, x2 = 0.799	1208.9 ± 3.7	5.339 ± 0.45
318.15 K, x2 = 0.901	1153 ± 3.5	3.156 ± 0.28
323.15 K, x2 = 0	1284.4 ± 4.5	29.55 ± 2
323.15 K, x2 = 0.1032	1280.3 ± 4.4	21.51 ± 1.5
323.15 K, x2 = 0.1939	1276.8 ± 4.3	18.11 ± 1.2
323.15 K, x2 = 0.2987	1272.2 ± 4.2	15.17 ± 1.1
323.15 K, x2 = 0.3999	1266.5 ± 4.1	12.62 ± 0.91
323.15 K, x2 = 0.501	1258.3 ± 4.1	10.42 ± 0.77
323.15 K, x2 = 0.5923	1248.5 ± 4	8.516 ± 0.65
323.15 K, x2 = 0.7023	1231.1 ± 3.9	6.576 ± 0.53
323.15 K, x2 = 0.799	1205.2 ± 3.8	4.57 ± 0.4
323.15 K, x2 = 0.901	1150 ± 3.6	3.005 ± 0.27
333.15 K, x2 = 0	1277.4 ± 4.7	21.61 ± 1.5
333.15 K, x2 = 0.1032	1273.1 ± 4.6	16.07 ± 1.1
333.15 K, x2 = 0.1939	1269.7 ± 4.5	13.51 ± 0.96
333.15 K, x2 = 0.2987	1265 ± 4.4	11.61 ± 0.85
333.15 K, x2 = 0.3999	1259.3 ± 4.4	9.88 ± 0.74
333.15 K, x2 = 0.501	1251.1 ± 4.3	8.101 ± 0.63
333.15 K, x2 = 0.5923	1241.3 ± 4.2	6.702 ± 0.54
333.15 K, x2 = 0.7023	1223.4 ± 4.1	5.137 ± 0.44
333.15 K, x2 = 0.799	1197.2 ± 4	3.618 ± 0.32
333.15 K, x2 = 0.901	1142.6 ± 3.8	2.099 ± 0.19
343.15 K, x2 = 0	1270.5 ± 4.9	16.38 ± 1.1
343.15 K, x2 = 0.1032	1266 ± 4.8	12.44 ± 0.9
343.15 K, x2 = 0.1939	1262.6 ± 4.7	10.54 ± 0.78
343.15 K, x2 = 0.2987	1257.9 ± 4.6	9.137 ± 0.69
343.15 K, x2 = 0.3999	1252.2 ± 4.6	7.816 ± 0.61
343.15 K, x2 = 0.501	1244 ± 4.5	6.612 ± 0.53
343.15 K, x2 = 0.5923	1233.9 ± 4.4	5.384 ± 0.46
343.15 K, x2 = 0.7023	1215.6 ± 4.3	4.24 ± 0.37
343.15 K, x2 = 0.799	1189.3 ± 4.2	2.936 ± 0.26
343.15 K, x2 = 0.901	1134.3 ± 4.1	1.714 ± 0.16
